# Measured values as given in patent US11116771B2, “G protein-coupled receptor (GPCR) modulation by imipridones” (Oncoceutics, Inc., priority 2016, dated 2021).
# Read-outs that look alike come from different tables or passages of the source.
# Columns and labels:
# Assay type in all cases: cell-based
# [1] = test system: Staphylococcus aureus ATCC 33591; assay: MIC by micro-broth dilution, S. aureus ATCC 33591; conditions: ATCC33591
# [2] = test system: Staphylococcus aureus ATCC 700699; assay: MIC by micro-broth dilution, S. aureus ATCC 700699; conditions: ATCC700699
# human cancer cells = assay: Viability of human cancer cells at 72 hours post-treatment; conditions: relative to the potency of ONC201; viability of human cancer cells at 72 hours post-treatment
Structure (SMILES),Relative Potency* (human cancer cells),further results
"COc1cccc(OC)c1C(=O)N[C@@H]1C(=O)N2[C@@H]1SC(C)(C)[C@@H]2C(=O)O [Methicillin, reference compound]",–,"MIC ([1]; Staphylococcus aureus (ATCC 33591), methicillin resistant, read-out: MIC): > 100 µg/mL; MIC90 ([1]; Staphylococcus aureus, ATCC 33591, 24 hours, read-out: MIC90): > 100 µg/mL; MIC ([1]; Staphylococcus aureus, ATCC 33591, 24 hours, read-out: MIC95): > 100 µg/mL; MIC99 ([1]; Staphylococcus aureus, ATCC 33591, 24 hours, read-out: MIC99): > 100 µg/mL; MIC ([1]; Staphylococcus aureus, ATCC 33591, 24 hours, read-out: MIC, Visual): > 100 µg/mL; MIC ([2]; MDR Staphylococcus aureus (ATCC 700699), read-out: MIC): > 100 µg/mL; MIC90 ([2]; Staphylococcus aureus, ATCC 700699 (48 hours), read-out: MIC90): > 100 µg/mL; MIC ([2]; Staphylococcus aureus, ATCC 700699 (48 hours), read-out: MIC95): > 100 µg/mL; MIC99 ([2]; Staphylococcus aureus, ATCC 700699 (48 hours), read-out: MIC99): > 100 µg/mL; MIC ([2]; Staphylococcus aureus, ATCC 700699 (48 hours), read-out: MIC, Visual): > 100 µg/mL"
O=C1C2=C(CCN(Cc3ccccc3)C2)N2CCN=C2N1CCc1ccccc1 [ONC204],C (C Indicates a potency decrease of >2-fold of ONC201),–
O=C1C2=C(CCN(Cc3ccccc3)C2)N2CCN=C2N1CCN1CCN(Cc2ccccc2)CC1 [ONC205],C (C Indicates a potency decrease of >2-fold of ONC201),–
Cc1ccccc1CN1C(=O)C2=C(CCN(C)C2)N2CCN=C12 [ONC208],B (B Indicates potency that is within 2-fold of ONC201),–
Cc1ccccc1CN1C(=O)C2=C(CCN(CCc3ccccc3)C2)N2CCN=C12 [ONC209],B (B Indicates potency that is within 2-fold of ONC201),–
O=C1C2=C(CCN(Cc3ccccc3)C2)N2CCN=C2N1Cc1cc(F)cc(F)c1 [ONC210],B (B Indicates potency that is within 2-fold of ONC201),–
O=C1C2=C(CCN(Cc3ccccc3)C2)N2CCN=C2N1Cc1ccc(Cl)c(Cl)c1 [ONC211],B (B Indicates potency that is within 2-fold of ONC201),–
Cc1ccccc1CN1C(=O)C2=C(CCN(CCCN)C2)N2CCN=C12 [ONC216],B (B Indicates potency that is within 2-fold of ONC201),–
O=C1C2=C(CCN(Cc3ccccc3)C2)N2CCN=C2N1Cc1ccccc1F [ONC217],C (C Indicates a potency decrease of >2-fold of ONC201),–
Cc1cc(F)ccc1CN1C(=O)C2=C(CCN(Cc3ccccc3)C2)N2CCN=C12 [ONC218],A (A Indicates a potency increase of >2-fold of ONC201),–
O=C1C2=C(CCN(Cc3ccccc3)C2)N2CCN=C2N1Cc1ccc(Cl)cc1Cl [ONC219],A (A Indicates a potency increase of >2-fold of ONC201),–
COc1ccc(CN2C(=O)C3=C(CCN(Cc4ccccc4)C3)N3CCN=C23)cc1 [ONC220],A (A Indicates a potency increase of >2-fold of ONC201),–
O=C1C2=C(CCNC2)N2CCN=C2N1Cc1ccc(C(F)(F)F)cc1 [ONC221],A (A Indicates a potency increase of >2-fold of ONC201),–
O=C1C2=C(CCN(Cc3ccccc3)C2)N2CCN=C2N1CC1CCON1 (centres unmarked) [ONC222],C (C Indicates a potency decrease of >2-fold of ONC201),–
Cc1ccc(CN2C(=O)C3=C(CCN(Cc4ccccc4)C3)N3CCN=C23)cc1 [ONC223],A (A Indicates a potency increase of >2-fold of ONC201),–
O=C1C2=C(CCN(Cc3ccccc3)C2)N2CCN=C2N1CCN1CCOCC1 [ONC224],A (A Indicates a potency increase of >2-fold of ONC201),–
O=C1C2=C(CCN(Cc3ccccc3)C2)N2CCN=C2N1Cc1ccc(C(F)(F)F)cc1F [ONC225],A (A Indicates a potency increase of >2-fold of ONC201),–
O=C1C2=C(CCN(Cc3ccccc3)C2)N2CCN=C2N1Cc1cccnc1 [ONC226],A (A Indicates a potency increase of >2-fold of ONC201),–
O=C1C2=C(CCN(Cc3ccc(C(F)(F)F)cc3)C2)N2CCN=C2N1Cc1ccc(C(F)(F)F)cc1 [ONC227],B (B Indicates potency that is within 2-fold of ONC201),–
O=C1C2=C(CCN(Cc3ccc(F)cc3)C2)N2CCN=C2N1Cc1ccc(C(F)(F)F)cc1 [ONC228],A (A Indicates a potency increase of >2-fold of ONC201),–
COc1ccc(CN2CCC3=C(C2)C(=O)N(Cc2ccc(C(F)(F)F)cc2)C2=NCCN23)cc1 [ONC229],B (B Indicates potency that is within 2-fold of ONC201),–
O=C(CCCN1CCC2=C(C1)C(=O)N(Cc1ccc(C(F)(F)F)cc1)C1=NCCN12)c1ccc(F)cc1 [ONC230],A (A Indicates a potency increase of >2-fold of ONC201),–
O=C1C2=C(CCN(Cc3cccnc3)C2)N2CCN=C2N1Cc1ccc(C(F)(F)F)cc1 [ONC231],A (A Indicates a potency increase of >2-fold of ONC201),–
